Assay results from patent publication US20100173888A1 (Pfizer Inc, priority 2008, published 2010).

Molecular target: human recombinant H-PGDS (Homo sapiens, UniProt O60760)
Assay: Fluorescence intensity h-PGDS TBA enzyme assay (PGH2 depletion, MDA/TBA fluorescence)
Type: biochemical
Conditions: 1:175,000 human recombinant H-PGDS, 42 second reaction, 3-fold serial dilutions, highest concentration typically 1 μM
Method: Fluoresecence Intensity h-PGDSTBA Enzyme Assay
Prostaglandin D Synthase (PGDS) converts the substrate prostaglandin H2 (PGH2) to prostaglandin D2. The depletion of PGH2 was measured via an Fe(II) reduction of the remaining PGH2 to malondialdehyde (MDA) and 12-HHT. The enzyme assay is based on the quantitative formation of a fluorescent complex from the non-fluorescent compounds MDA and 2-thiobarbituric acid (TBA), substantially as described in U.S. patent application publication US-2004/152148 by Lombardt.
The enzyme assay (31 μls) contained 100 mM Tris base pH 8.0, 100 μM MgCl2, 0.1 mg/ml IgG Rabbit serum, 5.0 μM PGH2 (Cayman; ethanol solution, #17020), 2.5 mM L-Glutathione (Sigma; reduced form. #G4251), 1:175,000 human recombinant H-PGDS (from 1 mg/ml), 0.5% DMSO and inhibitor (varying concentration). Three μls of diluted inhibitor (dissolved in DMSO) was plated into a 384-well assay plate followed by a 25 μl addition of an enzyme solution containing h-PGDS, Tris, MgCl2, IgG and L-Glutathione. After preincubation of inhibitor and enzyme solution for 10 minutes at room temperature, the reaction was initiated with a 3 μl addition of substrate solution in 10 mM HCl. The reaction was terminated after 42 second by the addition (3 μl) of stop buffer containing FeCl2 and citric acid. After addition of 45.5 μls of TBA plates were heated for one hour in a 70° C. oven. Plates were cooled at room temperature overnight and read on a plate reader the next day with excitation @ 530 nm and emission @ 565 nm.
IC50' s of inhibitors were calculated with a 4-parameter fit using 11 inhibitor concentrations in duplicate with 3-fold serial dilutions. Controls on each plate included no inhibitor (zero % effect) and an inhibitor 10-fold in excess of its' IC50 (100% effect). The highest inhibitor concentration tested was typically 1 μM.

Chain of human recombinant H-PGDS (O60760 whole entry): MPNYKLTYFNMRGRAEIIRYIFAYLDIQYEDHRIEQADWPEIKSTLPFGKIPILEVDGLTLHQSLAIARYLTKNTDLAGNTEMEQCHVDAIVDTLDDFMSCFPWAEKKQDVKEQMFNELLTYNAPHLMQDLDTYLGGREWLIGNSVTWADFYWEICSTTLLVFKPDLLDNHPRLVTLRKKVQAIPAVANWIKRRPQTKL

Row | IC50 [nM] | Compound
1 | 4.41 | O=C(N[C@H]1CC[C@H](CO)CC1)c1cnc(-c2cccc(F)c2)c(Cl)c1 [Example 114, 5-Chloro-6-(3-fluorophenyl)-N-[trans-4-(hydroxymethyl)cyclohexyl]nicotinamide]
2 | 34.5 | CC(=O)N1CC(NC[C@H]2CCC[C@@H](NC(=O)c3ccc(-c4cccc(F)c4)nc3)C2)C1 (relative stereo) [Example 257]
3 | 22.7 | O=C(NC1CCCc2ccccc21)c1ccc(-c2cc(F)cc(F)c2)nc1 (centres unmarked) [Example 124, 6-(3,5-Difluorophenyl)-N-(1,2,3,4-tetrahydronaphthalen-1-yl)nicotinamide]
4 | 60 | CCN1CCC(CNC(=O)[C@H]2CC[C@H](NC(=O)c3ccc(-c4cccc(F)c4)nc3)CC2)C1 (relative stereo) [Example 113F, N-(trans-4-{[(1-ethylpyrrolidin-3-yl)methyl]carbamoyl}cyclohexyl)-6-(3-fluorophenyl)nicotinamide]
5 | 4.5 | O=C(N[C@H]1CC[C@H](C(=O)NCCCO)CC1)c1ccc(-c2cccc(F)c2)nc1 [Example 113G, 6-(3-fluorophenyl)-N-{trans-4-[(3-hydroxypropyl)carbamoyl]cyclohexyl}nicotinamide]
6 | 10.6 | CN(C)C(=O)C1(C#N)CCCC(NC(=O)c2ccc(-c3cccc(F)c3)nc2)C1 (centres unmarked) [Example 266, N-[3-Cyano-3-(dimethylcarbamoyl)cyclohexyl]-6-(3-fluorophenyl)nicotinamide]
7 | 36 | O=C(N[C@H]1CC[C@H](N2CCCC2)CC1)c1ccc(-c2cccc(F)c2)nc1 [Example 213, 6-(3-Fluorophenyl)-N-(trans-4-pyrrolidin-1-ylcyclohexyl)nicotinamide]
8 | 11 | CN(C)C(=O)N[C@H]1CC[C@@H](NC(=O)c2ccc(-c3cccc(F)c3)nc2)CC1 [Example 234, N-{cis-4-[(Dimethylcarbamoyl)amino]cyclohexyl}-6-(3-fluorophenyl)nicotinamide]
9 | 4.4 | O=C(N[C@H]1CC[C@@H](C(=O)N2CCC(CCO)CC2)C1)c1ccc(-c2cccc(F)c2)nc1 [Example 168, 6-(3-Fluorophenyl)-N-[(1S,3R)-3-{(4-(2-hydroxyethyl)piperidin-1-yl]carbonyl}cyclopentyl]nicotinamide]
10 | 29.1 | O=C(N[C@@H]1CCC[C@@H](C(=O)N2CCNCC2)C1)c1ccc(-c2cccc(F)c2)nc1 (relative stereo) [Example 243]
11 | 59.9 | O=C(N[C@H]1CCC[C@@H](C(=O)N2CCC(O)CC2)C1)c1ccc(-c2cccc(F)c2)nc1 [Example 260, 6-(3-Fluorophenyl)-N-{(1S,3R)-3-[(4-hydroxypiperidin-1-yl)carbonyl]cyclohexyl}nicotinamide]
12 | 7 | O=C(N[C@H]1CC[C@H](C(=O)N[C@@H]2CCNC2=O)CC1)c1ccc(-c2cccc(F)c2)nc1 [Example 113B, 6-(3-fluorophenyl)-N-(trans-4-{[(3R)-2-oxopyrrolidin-3-yl]carbamoyl}cyclohexyl)nicotinamide]
13 | 57 | CN1CCN(CC(=O)N[C@H]2CCC[C@H](NC(=O)c3ccc(-c4cccc(F)c4)nc3)C2)CC1 (relative stereo) [Example 247]
14 | 25.4 | COCCNC(=O)[C@H]1CC[C@@H](NC(=O)c2ccc(-c3cccc(F)c3)nc2)C1 [Example 185]
15 | 97.8 | N[C@H]1CC[C@@H](NC(=O)c2ccc(-c3cccc(F)c3)nc2)CC1 [Example 155, N-(cis-4-Aminocyclohexyl)-6-(3-fluorophenyl)nicotinamide]
16 | 21.8 | CC(O)[C@H]1CCC[C@@H](NC(=O)c2ccc(-c3cccc(F)c3)nc2)C1 (relative stereo) [Example 199, 6-(3-Fluorophenyl)-N-[(cis)-3-(1-hydroxyethyl)cyclohexyl]nicotinamide]
17 | 52.7 | CN(C)CC(=O)N[C@H]1CC[C@@H](NC(=O)c2ccc(-c3cccc(F)c3)nc2)CC1 [Example 221, N-{cis-4-[(N,N-dimethylglycyl)amino]cyclohexyl}-6-(3-fluorophenyl)nicotinamide]

The next lines start with the compound.

Row | Compound | IC50 [nM]
18 | C[C@]1(C(=O)O)CCC[C@@H](NC(=O)c2ccc(-c3cccc(F)c3)nc2)C1 (relative stereo) [Example 231, (1S*,3R*)-3-({[6-(3-Fluorophenyl)pyridin-3-yl]carbonyl}amino)-1-methylcyclohexane carboxylic acid] | 13.8
19 | O=C(N[C@H]1CC[C@H](C(=O)NC2CCNCC2)CC1)c1ccc(-c2cccc(F)c2)nc1 [Example 201, 6-(3-Fluorophenyl)-N-[trans-4-(piperidin-4-ylcarbamoyl)cyclohexyl]nicotinamide] | 31
20 | C[C@H](N)C(=O)N[C@H]1CC[C@H](NC(=O)c2ccc(-c3cccc(F)c3)nc2)CC1 [Example 113R, N-[trans-4-(L-alanylamino)cyclohexyl]-6-(3-fluorophenyl)nicotinamide] | 13.8
21 | COCC(=O)N[C@@H]1CCC[C@H](NC(=O)c2ccc(-c3cccc(F)c3)nc2)C1 (relative stereo) [Example 203, 6-(3-Fluorophenyl)-N-cis-[3-(2-methoxyacetylamino)cyclohexyl]nicotinamide] | 17.1
22 | O=C(N[C@H]1CC[C@H]([C@H](O)C2CC2)CC1)c1ccc(-c2cccc(F)c2)nc1 [Example 212, N-[4-trans-((R)-Cyclopropylhydroxymethyl)cyclohexyl]-6-(3-fluorophenyl)nicotinamide] | 2.3
23 | CC(C)(O)C1CCC(NC(=O)c2ccc(-c3cccc(F)c3)nc2)CC1 (centres unmarked) [Example 48, 6-(3-Fluorophenyl)-N-[4-(1-hydroxy-1-methylethyl)cyclohexyl]nicotinamide] | 0.614
24 | NC1CCN(C(=O)[C@H]2CC[C@@H](NC(=O)c3ccc(-c4cccc(F)c4)nc3)C2)CC1 [Example 187] | 30.7
25 | O=C(N[C@@H]1CC[C@H](C(=O)N2CC[C@H](F)C2)C1)c1ccc(-c2cccc(F)c2)nc1 [Example 181, 6-(3-Fluorophenyl)-N-[(1R,3S)-3-{[(3S)-3-fluoropyrrolidin-1-yl]carbonyl}cyclopentyl]nicotinamide] | 5.8
26 | COC(=O)C1(NC(=O)c2ccc(-c3ccc(F)cc3)nc2)CC1 [Example 5] | ≥ 1000
27 | O=C(CO)N[C@H]1CC[C@@H](NC(=O)c2ccc(-c3cccc(F)c3)nc2)CC1 [Example 220, 6-(3-fluorophenyl)-N-[cis-4-(glycoloylamino)cyclohexyl]nicotinamide] | 32.7
28 | CN(C)C(=O)[C@H]1CC[C@@H](NC(=O)c2ccc(-c3cccc(F)c3)nc2)C1 [Example 165, N-[(1R,3S)-3-Dimethylcarbamoyl-cyclopentyl]-6-(3-fluorophenyl)nicotinamide] | 16.9
29 | COC(=O)C1(NC(=O)c2ccc(-c3cccc(OC)c3)nc2)CC1 [Example 4, Methyl 1-({[6-(3-methoxyphenyl)pyridin-3-yl]carbonyl}amino)cyclopropanecarboxylate] | ≥ 1000
30 | O=C(N[C@H]1CCC[C@H](CO)C1)c1ccc(-c2cccc(F)c2)nc1 (relative stereo) [Example 250] | 26.4
31 | CNC(=O)N[C@H]1CC[C@H](NC(=O)c2ccc(-c3cccc(F)c3)nc2)CC1 [Example 270] | 9.1
32 | O=C(NC1CCCCC1)c1ccc(-c2ccccc2)nc1 [Example 21, N-Cyclohexyl-6-phenylnicotinamide] | 1.66
33 | N#CC1(C(=O)N2CCOCC2)CCCC(NC(=O)c2ccc(-c3cccc(F)c3)nc2)C1 (centres unmarked) [Example 265, N-[3-Cyano-3-(morpholin-4-ylcarbonyl)cyclohexyl]-6-(3-fluorophenyl)nicotinamide] | 2.8
34 | CN(C)CCNC(=O)[C@@H]1CC[C@H](NC(=O)c2ccc(-c3cccc(F)c3)nc2)C1 [Example 167, N-[(1S,3R)-3-{[2-(Dimethylamino)ethyl]carbamoyl}cyclopentyl]-6-(3-fluorophenyl)nicotinamide] | 28.5
35 | CS(=O)(=O)N[C@@H]1CCC[C@H](NC(=O)c2ccc(-c3cccc(F)c3)nc2)C1 (relative stereo) [Example 207, 6-(3-Fluoro-phenyl)-N-cis-(3-methanesulfonylamino-cyclohexyl)-nicotinamide] | 81.1
36 | CN(C)CCCNC(=O)[C@H]1CC[C@H](NC(=O)c2ccc(-c3cccc(F)c3)nc2)CC1 [Example 113A, N-(trans-4-{[3-(dimethylamino)propyl]carbamoyl}cyclohexyl)-6-(3-fluorophenyl)nicotinamide] | 21.1
37 | CNC(=O)N[C@H]1CC[C@@H](NC(=O)c2ccc(-c3cccc(F)c3)nc2)CC1 [Example 236, 6-(3-Fluorophenyl)-N-{cis-4-[(methylcarbamoyl)amino]cyclohexyl}nicotinamide] | 5.7
38 | O=C(CO)N[C@H]1CCC[C@H](NC(=O)c2ccc(-c3cccc(F)c3)nc2)C1 (relative stereo) [Example 245] | 21.6
